In patent publication US5362739A (priority 1990, dated 1994):
Where a name gives a salt, the structure may show the parent alone. Read-outs that look alike come from different tables or passages of the source.

Legend:
[1] = target: muscarinic receptors; experiment: Radio ligand binding: displacement of the muscarinic agonist 3H-Oxotremorine-M (3H-OXO-M); parameters: species or system rat (Hooded Lister); conditions: 2 nM 3H-OXO-M, rat cerebral cortex membranes, 2 mM magnesium chloride, 37° C., 30 min
[2] = target: muscarinic receptors; assay type: binding, rat (Hooded Lister); conditions: 0.27 nM 3H-QNB, rat cerebral cortex membranes, 37° C., 30 min

For CON=C(Cl)C1=CC2CCN(C1)C2 (racemic) [Compound E2, (±) 1-Azabicyclo[3.2.1]oct-3-en-3-yl-N-methoxycarboximidoyl chloride oxalate salt], the IC50 [1] was 100 nM and the IC50 [2] was 1100 nM.
CON=C(C)C1=CC2CCN(C1)C2 (racemic) [Compound E5, (±)trans 3-Acetyl-1-azabicyclo[3.2.1]oct-3-ene-O-methyloxime hydrochloride salt] gave an IC50 [1] of 175 nM and an IC50 [2] of 1450 nM.
For CON=CC1=CC2CCN(C1)C2 (mixture of isomers) [Compound E4, (±) syn-1-Azabicyclo[3.2.1]oct-3-en-3-ylcarboxaldehyde-O-methyloxime hydrochloride salt], the IC50 [1] was 70 nM and the IC50 [2] was 1250 nM.
CON=C(C#N)C1=CC2CCN(C1)C2 (racemic) [Compound E6, (±)-α-(Methoxyimino)-α-(1-azabicyclo[3.2.1]oct-3-en-3-yl)acetonitrile oxalate salt] was tested, and the IC50 [1] was 21 nM and the IC50 [2] was 330 nM.
CON=C(F)C1=CC2CCN(C1)C2 (racemic) [Compound E3, (±) 1-Azabicyclo[3.2.1]oct-3-en-3-yl-N-methoxcarboximidoyl fluoride oxalate salt] showed an IC50 [1] of 26 nM and an IC50 [2] of 320 nM.
